38 substances from US8178506B2, “Oligomeric compounds and compositions for use in modulation of small non-coding RNAs” (Regulus Therapeutics Inc., priority 2003, dated 2012) can be followed below.

In the oligonucleotide strings, read from the 5' end, every base follows the letter of its sugar. An asterisk marks phosphorothioate; unmarked linkages are phosphodiester. Other units and linkages are bracketed, terminal groups are in braces. A string of capitals states the bases alone. e = 2'-O-(2-methoxyethyl) (MOE); [5mC] = 5-methylcytosine; d = 2'-deoxy (DNA)

For one data set, the system named is T47D cells. Description: Caspase-3 activity assay (apoptosis) in T47D cells. Conditions: T47D cells, 200 nM oligomeric compound, 48 hours; experiment of Table 10.
Regarding “328672 (eA*eA*eG*eG*e[5mC]*dT*dT*dT*dT*dT*dG*d[5mC]*dT*d[5mC]*dA*eA*eG*eG*eG*e[5mC]; antisense) [compound 328672]”, the “Fold Increase over UTC (caspase-3 activity, apoptosis)” value worked out at 0.9 fold.

“328402 (antisense eT*eT*eG*eA*eA*d[5mC]*dT*d[5mC]*d[5mC]*dA*dT*dG*d[5mC]*d[5mC]*dA*e[5mC]*eA*eA*eG*eG) [compound 328402]”: the “Fold Increase over UTC (caspase-3 activity, apoptosis)” value stood at 1.2 fold.

Regarding “328694 (e[5mC]*eA*eA*eA*e[5mC]*dG*dG*dT*dA*dA*dG*dA*dT*dT*dT*eG*e[5mC]*eA*eG*eA; antisense) [compound 328694]”, the “Fold Increase over UTC (caspase-3 activity, apoptosis)” value was 0.8 fold.

Consider “328385 (eA*eG*eT*eG*e[5mC]*dT*dA*dA*dT*dA*d[5mC]*dT*dT*d[5mC]*dT*eT*eT*e[5mC]*eA*eT; antisense) [compound 328385]”, for which the “Fold Increase over UTC (caspase-3 activity, apoptosis)” value is 0.9 fold.

The data set is the same for the next values; noted with them: T47D cells, 200 nM oligomeric compound, 48 hours; experiment of Table 11.
With “328411 (antisense eT*eA*e[5mC]*e[5mC]*eT*d[5mC]*dT*dG*d[5mC]*dA*dG*dT*dA*dT*dT*e[5mC]*eT*eA*e[5mC]*eA) [compound 328411]”, the “Fold Increase over UTC (caspase-3 activity, apoptosis)” value was determined as 0.8 fold.

As for “328645 (eT*eG*e[5mC]*eT*e[5mC]*dA*dG*d[5mC]*d[5mC]*dA*dG*d[5mC]*d[5mC]*d[5mC]*d[5mC]*eA*eT*eT*e[5mC]*eT) [compound 328645]”, the “Fold Increase over UTC (caspase-3 activity, apoptosis)” value turned out to be 2.2 fold.

As for “328637 (eG*eG*eT*eT*e[5mC]*d[5mC]*dT*dA*dA*dT*dT*dA*dA*dA*d[5mC]*eA*eA*e[5mC]*e[5mC]*e[5mC]; antisense) [compound 328637]”, the “Fold Increase over UTC (caspase-3 activity, apoptosis)” value was determined as 1.0 fold.

Turning to “328393 (eG*e[5mC]*eT*eG*eG*d[5mC]*d[5mC]*dT*dG*dA*dT*dA*dG*d[5mC]*d[5mC]*e[5mC]*eT*eT*e[5mC]*eT; antisense) [compound 328393]”, the “Fold Increase over UTC (caspase-3 activity, apoptosis)” value is 1.5 fold.

Turning to “328695 (eG*eG*eA*eT*eT*dT*dA*dA*dA*d[5mC]*dG*dG*dT*dA*dA*eA*e[5mC]*eA*eT*e[5mC]; antisense) [compound 328695]”, the “Fold Increase over UTC (caspase-3 activity, apoptosis)” value is on record as 0.8 fold.

On to “328376 (eT*e[5mC]*eA*e[5mC]*eA*dA*dT*d[5mC]*d[5mC]*d[5mC]*d[5mC]*dA*d[5mC]*d[5mC]*dA*eA*eA*e[5mC]*eT*e[5mC]; antisense) [compound 328376]”, for which the “Fold Increase over UTC (caspase-3 activity, apoptosis)” value is on record as 0.7 fold.

For “328404 (antisense eG*eT*eA*eG*eA*dT*d[5mC]*dT*d[5mC]*dA*dA*dA*dA*dA*dG*e[5mC]*eT*eA*e[5mC]*e[5mC]) [compound 328404]”, the “Fold Increase over UTC (caspase-3 activity, apoptosis)” value stood at 0.9 fold.

The same data set, now with this note: T47D cells, 200 nM oligomeric compound, 48 hours; experiment of Table 12.
For “328432 (antisense eG*eA*eG*e[5mC]*eA*dT*dG*d[5mC]*dA*dA*d[5mC]*dA*d[5mC]*dT*d[5mC]*eT*eG*eT*eG*e[5mC]) [compound 328432]”, the “Fold Increase over UTC (caspase-3 activity, apoptosis)” value stood at 0.6 fold.

Turning to “328690 (eG*e[5mC]*e[5mC]*eT*e[5mC]*d[5mC]*dT*dT*d[5mC]*dA*dT*dA*dT*dA*dT*eT*e[5mC]*eT*e[5mC]*eA; antisense) [compound 328690]”, the “Fold Increase over UTC (caspase-3 activity, apoptosis)” value amounted to 0.8 fold.

As for “328414 (antisense e[5mC]*eT*eT*e[5mC]*eA*dA*dG*dT*dG*d[5mC]*dA*dG*d[5mC]*d[5mC]*dG*eT*eA*eG*eG*e[5mC]) [compound 328414]”, the “Fold Increase over UTC (caspase-3 activity, apoptosis)” value worked out at 0.9 fold.

Take “328430 (antisense e[5mC]*e[5mC]*eG*eG*e[5mC]*dT*dA*dT*dT*dG*dA*dG*dT*dT*dA*eT*eG*eT*eA*e[5mC]) [compound 328430]”: the “Fold Increase over UTC (caspase-3 activity, apoptosis)” value is listed as 1.3 fold.

Staying with this data set, now noted: T47D cells, 200 nM, 48 hours, relative to untreated control.
On to “328371 (eT*e[5mC]*e[5mC]*eA*eT*dA*dG*d[5mC]*dT*dT*dA*dG*d[5mC]*dA*dG*eG*eT*e[5mC]*e[5mC]*eA; antisense) [compound 328371]”, for which the “Fold Increase over UTC (caspase activity)” value came out at 1.2.

For “328416 (antisense eA*e[5mC]*eA*eT*eT*dG*d[5mC]*dT*dA*dT*d[5mC]*dA*dT*dA*dA*eG*eA*eG*e[5mC]*eT) [compound 328416]”, the “Fold Increase over UTC (caspase activity)” value is 0.9.

Turning to “328692 (eT*eT*eG*eT*eA*dT*dG*dG*dA*d[5mC]*dA*dT*dT*dT*dA*eA*eA*eT*e[5mC]*eA; antisense) [compound 328692]”, the “Fold Increase over UTC (caspase activity)” value was 1.2.

For the substance “328372 (eT*eT*eT*eG*eA*dT*dA*dG*dT*dT*dT*dA*dG*dA*d[5mC]*eA*e[5mC]*eA*eA*eA; antisense) [compound 328372]”, the “Fold Increase over UTC (caspase activity)” value was 1.0.

Take “328648 (eA*e[5mC]*eT*eG*eA*dT*dT*d[5mC]*dA*dA*dG*dA*dG*d[5mC]*dT*eT*eT*eG*eT*eA; antisense) [compound 328648]”: the “Fold Increase over UTC (caspase activity)” value was 1.1.

For “328378 (e[5mC]*eA*e[5mC]*e[5mC]*e[5mC]*dT*d[5mC]*d[5mC]*dA*dG*dT*dG*d[5mC]*dT*dG*eT*eT*eA*eG*eT; antisense) [compound 328378]”, the “Fold Increase over UTC (caspase activity)” value worked out at 1.0.

The data set is the same for the next values; noted with them: caspase assay, 200 nM; conclusion from Tables 9-12.
“SEQ ID NO 485: gapmer of Tables 9-12 having this SEQ ID NO (antisense eT*e[5mC]*eA*e[5mC]*eA*dA*dT*d[5mC]*d[5mC]*d[5mC]*d[5mC]*dA*d[5mC]*d[5mC]*dA*eA*eA*e[5mC]*eT*e[5mC])”: the “apoptosis in T47D cells” value is on record as “prevent or have a protective effect from apoptosis”.

With “TGCCATGAGATTCAACAGTC (2'-MOE gapmer, phosphorothioate, chemistry not fully specified) [ISIS 328415]”, the “apoptosis in T47D cells” value was “induce apoptosis”.

As for “SEQ ID NO 534: gapmer of Tables 9-12 having this SEQ ID NO (antisense eG*eA*e[5mC]*e[5mC]*eT*dG*d[5mC]*dT*dA*d[5mC]*dT*d[5mC]*dA*d[5mC]*dT*e[5mC]*eT*e[5mC]*eG*eT)”, the “apoptosis in T47D cells” value was “prevent or have a protective effect from apoptosis”.

In the case of “ISIS 328391: 5-10-5 2′-MOE gapmer PS; targets hypothetical miRNA-044 pri-miRNA (eA*eT*eG*eG*eT*dA*dA*dT*dT*dT*d[5mC]*dA*dT*dT*dT*e[5mC]*eA*eG*eG*e[5mC])”, the “apoptosis in T47D cells” value is listed as “prevent or have a protective effect from apoptosis”.

On to “AAAAATAATCTCTGCACAGG (antisense; same sequence listed as MOE 5-10-5 gapmer and as uniform MOE, further chemistry not given here) [ISIS 328657]”, for which the “apoptosis in T47D cells” value is listed as “prevent or have a protective effect from apoptosis”.

On to “TGCTGACTGCTCGCCCTTGC (antisense; same sequence listed as MOE 5-10-5 gapmer and as uniform MOE, further chemistry not given here) [ISIS 328641]”, for which the “apoptosis in T47D cells” value was “induce apoptosis”.

Regarding “GACTACTGTTGAGAGGAACA (antisense; same sequence listed as MOE 5-10-5 gapmer and as uniform MOE, further chemistry not given here) [ISIS 328639]”, the “apoptosis in T47D cells” value is on record as “prevent or have a protective effect from apoptosis”.

Regarding “TTTCAGGCTCACCTCCCCAG (antisense; same sequence listed as MOE 5-10-5 gapmer and as uniform MOE, further chemistry not given here) [ISIS 328656]”, the “apoptosis in T47D cells” value is “induce apoptosis”.

As for “SEQ ID NO 535: gapmer of Tables 9-12 having this SEQ ID NO (antisense eG*eG*eT*eT*eG*dG*d[5mC]*d[5mC]*dG*d[5mC]*dA*dG*dA*d[5mC]*dT*e[5mC]*eG*eT*eA*e[5mC])”, the “apoptosis in T47D cells” value is recorded as “induce apoptosis”.

As to “SEQ ID NO 488: gapmer of Tables 9-12 having this SEQ ID NO (antisense e[5mC]*eT*eG*eA*e[5mC]*dT*dG*dA*dG*dA*d[5mC]*dT*dG*dT*dT*e[5mC]*eA*e[5mC]*eA*eG)”, the “apoptosis in T47D cells” value was “induce apoptosis”.

Turning to “SEQ ID NO 532: gapmer of Tables 9-12 having this SEQ ID NO (antisense e[5mC]*e[5mC]*eA*e[5mC]*eA*dT*dA*dT*dA*d[5mC]*dA*dT*dA*dT*dA*eT*eA*e[5mC]*eG*e[5mC])”, the “apoptosis in T47D cells” value is listed as “prevent or have a protective effect from apoptosis”.

As for “SEQ ID NO 518: gapmer of Tables 9-12 having this SEQ ID NO (antisense eG*e[5mC]*eT*eA*eG*dT*dG*dA*d[5mC]*dA*dG*dG*dT*dG*d[5mC]*eA*eG*eA*e[5mC]*eA)”, the “apoptosis in T47D cells” value was “prevent or have a protective effect from apoptosis”.

“TTGTATGGACATTTAAATCA (antisense; same sequence listed as MOE 5-10-5 gapmer and as uniform MOE, further chemistry not given here) [ISIS 328692]”: the “apoptosis in T47D cells” value is given as “induce apoptosis”.

Consider “TACAATTTGGGAGTCCTGAA (antisense; same sequence listed as MOE 5-10-5 gapmer and as uniform MOE, further chemistry not given here) [ISIS 328689]”, for which the “apoptosis in T47D cells” value is on record as “prevent or have a protective effect from apoptosis”.

Consider “SEQ ID NO 536: gapmer of Tables 9-12 having this SEQ ID NO (eG*eA*eT*eG*eT*d[5mC]*dA*d[5mC]*dT*dG*dA*dG*dG*dA*dA*eA*eT*e[5mC]*eA*e[5mC])”, for which the “apoptosis in T47D cells” value is reported as “prevent or have a protective effect from apoptosis”.

As to “AGCCAGTGTGTAAAATGAGA (2'-MOE gapmer, phosphorothioate, further chemistry not given here) [ISIS 328700]”, the “apoptosis in T47D cells” value is listed as “prevent or have a protective effect from apoptosis”.

Regarding “AATCCATTGAAGAGGCGATT (antisense; same sequence listed as MOE 5-10-5 gapmer and as uniform MOE, further chemistry not given here) [ISIS 328650]”, the “apoptosis in T47D cells” value is on record as “prevent or have a protective effect from apoptosis”.
